Patent US20020055528A1, “Artemisinin analogs having antimalarial, antiproliferative, and antitumor activities and chemoselective methods of making the same” (priority 1999, published 2002)
Like-named read-outs stand apart in the source and are kept apart here.

Assays:
[1] = tested on: MALME-3M; experiment: NCI 60 cell line screen (SRB), Melanoma; format: cell-based
[2] = tested on: U251; experiment: NCI 60 cell line screen (SRB), CNS Cancer; format: cell-based
[3] = tested on: HCT-15; experiment: NCI 60 cell line screen (SRB), Colon Cancer; format: cell-based; conditions: PG=0
[4] = tested on: NCI-H226; experiment: NCI 60 cell line screen (SRB), Non-Small Cell Lung Cancer; format: cell-based
[5] = tested on: MDA-N; experiment: NCI 60 cell line screen (SRB), Breast Cancer; format: cell-based
[6] = tested on: HOP-62; experiment: NCI 60 cell line screen (SRB), Non-Small Cell Lung Cancer; format: cell-based; conditions: PG=+50
[7] = tested on: A498; experiment: NCI 60 cell line screen (SRB), Renal Cancer; format: cell-based
[8] = tested on: TK-10; experiment: NCI 60 cell line screen (SRB), Renal Cancer; format: cell-based; conditions: PG=+50
[9] = tested on: MOLT-4
Experimental: The screening assay is performed on 96-well microtitre plates. Relatively high initial inoculation densities are used, in order to permit measurement of “time-zero” values and to enhance the screen's ability to detect and provide some differentiation between antiproliferative and cytotoxic response parameters. […] The inoculated microtitre plates are pre-incubated for 24 hours at 37θC prior to drug additions. The five drug dilutions tested routinely range from 10^−4 to 10^−8 molar. Higher or lower concentration ranges may be selected on a nonroutine basis if appropriate solubility and/or prior biological information or other screening data so dictate. Duplicate wells are prepared for all concentrations, (concentration is often denoted by placing brackets around a number); “time-zero” and “no drug” controls are also provided for each test. The minimum amount of compound required for a one-time evaluation in the routine screen can be calculated from the knowledge that each test requires a total of approximately 40 ml (0.04 liter) of cell culture medium containing the highest desired drug concentration. Thus, the amount (grams) of sample required (assuming an upper test concentration limit of 10^−4 M) is: molecular weight of compound×[…]. After a 48 hour incubation (37θC) with the test compound, the cells are fixed in situ to the bottoms of the microtitre wells by addition of 50 ul of either 50% trichloroacetic acid (for adherent cell lines) or 80% trichloroacetic acid (for settled cell suspension lines), followed by incubation for 60 minutes at 4θC. The cellular protein in each well is assayed using a sulforhodamine B (SRB) stain procedure. Briefly, after discarding the supernatants, the microtitre plates are washed 5 times with deionized water and air-dried. One hundred microliters of SRB solution (0.4% w/v in 1% acetic acid) is added to each microtitre well and incubated for 10 minutes at room temperature. Unbound SRB is removed by washing 5 times with 1 % acetic acid. The plates are air-dried, the bound stain is solubilized with Tris buffer, and the optical densities read at 515 nm. SRB is a bright pink anionic dye which, in dilute acetic acid, binds electrostatically to the basic amino acids of TCA-fixed cells. Cryopreserved master stocks of all the lines are maintained, and cultures used for screening are replaced from the master stock after no more than twenty passages in the screening laboratory. The cell line panel consists of 60 lines, organized into nine, disease-related subpanels including leukemia, non-small-cell lung cancer, colon, CNS, melanoma, ovarian, renal, prostate and breast cancers.
The response parameters G150 and LC50 are interpolated values representing the concentrations at which the percentage growth (PG) is +50 and −50, respectively:
GI50 is the concentration for which the PG=+50. At this value the increase from time tzero, in the number or mass of cells in the test well is only 50% as much as the corresponding increase in the control well during this period of the experiment, see Table II. A drug effect of this intensity is interpreted as primary growth inhibition.
TGI is the concentration for which PG=0. At this value the number or mass of cells in the well at the end of the experiment equals the number or mass of cells in the well at time tzero, see Table III. A drug effect of this intensity is regarded as cytostasis.
LC50 is the concentration for which the PG=−50. At this value, the number or mass of cells in the test well at the end of the experiment is half that at time tzero, see Table IV. This is interpreted as cytotoxicity.

[10] = tested on: HS 578T; experiment: NCI 60 cell line screen (SRB), Breast Cancer; format: cell-based; conditions: PG=+50
[11] = tested on: IGROVI; experiment: NCI 60 cell line screen (SRB), Ovarian Cancer; format: cell-based
[12] = tested on: MCF7; experiment: NCI 60 cell line screen (SRB), Breast Cancer; format: cell-based
[13] = tested on: SN12C; experiment: NCI 60 cell line screen (SRB), Renal Cancer; format: cell-based
[14] = tested on: 786-0; experiment: NCI 60 cell line screen (SRB), Renal Cancer; format: cell-based
[15] = tested on: OVCAR-3; experiment: NCI 60 cell line screen (SRB), Ovarian Cancer; format: cell-based; conditions: PG=0
[16] = tested on: NCI/ADR-RES; experiment: NCI 60 cell line screen (SRB), Breast Cancer; format: cell-based
[17] = tested on: CAKI-1; experiment: NCI 60 cell line screen (SRB), Renal Cancer; format: cell-based; conditions: Table IV (LC50, PG=−50)
[18] = tested on: SW-620; experiment: NCI 60 cell line screen (SRB), Colon Cancer; format: cell-based

## CC(=O)O[C@H]1C(=O)[C@@]2(C)[C@H]([C@H](OC(=O)c3ccccc3)[C@]3(O)C[C@H](OC(=O)[C@H](O)[C@@H](NC(=O)c4ccccc4)c4ccccc4)C(C)=C1C3(C)C)[C@]1(OC(C)=O)CO[C@@H]1C[C@@H]2O [Paclitaxel, paclitaxel, reference compound]
[1]; PG=0
  Log10TGI: −4.46 log10M
[1]; Table IV (LC50, PG=−50)
  Log10GI50: −4.11 log10M
[2]; PG=0
  Log10TGI: −4.32 log10M
[2]; PG=+50
  Log10GI50: −11.29 log10M
[2]; Table IV (LC50, PG=−50)
  Log10GI50: −4.15 log10M
[3]
  Log10TGI: >−4.00 log10M
[4]; PG=0
  Log10TGI: −4.80 log10M
[4]; Table IV (LC50, PG=−50)
  Log10GI50: −4.10 log10M
[5]; PG=0
  Log10TGI: −6.32 log10M
[5]; PG=+50
  Log10GI50: −9.31 log10M
[5]; Table IV (LC50, PG=−50)
  Log10GI50: >−4.00 log10M
[6]
  Log10GI50: −9.67 log10M
[7]; PG=+50
  Log10GI50: −7.14 log10M
[7]; Table IV (LC50, PG=−50)
  Log10GI50: −4.13 log10M
[8]
  Log10GI50: −7.89 log10M
[9]; MOLT-4, PG=+50
  Log10GI50: −11.07 log10M
[9]; MOLT−4, PG=0
  Log10TGI: −11.07 log10M
[9]; Table IV (LC50, PG=−50), MOLT−4
  Log10GI50: >−4.00 log10M
[9]; human, 48 h
  drug concentration for cytotoxicity (percentage growth −50): greater than 10^−4 M
[10]
  Log10GI50: <-13.00 log10M
[11]; PG=0
  Log10TGI: −4.19 log10M
[11]; PG=+50
  Log10GI50: −8.61 log10M
[11]; Table IV (LC50, PG=−50)
  Log10GI50: >−4.00 log10M
[12]; PG=+50
  Log10GI50: −11.69 log10M
[12]; Table IV (LC50, PG=−50)
  Log10GI50: >−4.00 log10M
[13]; SNI2C, PG=+50
  Log10GI50: −9.53 log10M
[13]; Table IV (LC50, PG=−50), SN12C
  Log10GI50: >−4.00 log10M
[14]; PG=0
  Log10TGI: >−4.00 log10M
[14]; PG=+50
  Log10GI50: −8.01 log10M
[14]; Table IV (LC50, PG=−50)
  Log10GI50: >−4.00 log10M
[15]
  Log10TGI: −4.55 log10M
[16]; PG=0
  Log10TGI: >−4.00 log10M
[16]; PG=+50
  Log10GI50: −8.48 log10M
[16]; Table IV (LC50, PG=−50)
  Log10GI50: >−4.00 log10M
[17]
  Log10GI50: >−4.00 log10M
[18]; PG=0
  Log10TGI: >−4.00 log10M
[18]; PG=+50
  Log10GI50: −11.60 log10M
